Reference: publication PMC3772632 (Nature structural & molecular biology, 2013)

Legend:
[1] = tested on: DnaK Trp102 (NBD-SBD allosteric coupling); settings: cited from earlier work
SBD = settings: cited from earlier work
[2] = tested on: dnak deletion strain BB205; assay: Growth tests in dnak deletion strain BB205 at 37°C; type: cell-based, E. coli; settings: serial dilutions spotted on LB plates, 20 μM IPTG, one overnight
DnaK ATPase = settings: ref [16],[28]; cited from earlier work

Compound: Nc1ncnc2c1ncn2[C@@H]1O[C@H](COP(=O)(O)OP(=O)(O)OP(=O)(O)O)[C@@H](O)[C@H]1O [ATP]
- ATP-induced change of tryptophan fluorescence ([1]; full-length DnaK, relative to apo and ADP-bound forms, ref [16]): blue-shift and fluorescence quenching
- Binding and release rates of substrates upon ATP binding (SBD; Hsp70 (mainly DnaK)): greatly accelerated, more for release than binding
- Reduction of affinity of SBD for its substrates upon ATP binding (SBD; ref [19],[20]): two to three

Compound: D100L: DnaK mutated individually at Asp100
- in vivo DnaK function / activity in growth tests [2]: moderate growth phenotype

Compound: G461P
- in vivo DnaK function / activity in growth tests [2]: compromised in vivo DnaK function modestly

Compound: G468P
- in vivo DnaK function / activity in growth tests [2]: compromised in vivo DnaK function modestly

Compound: T199A: well-characterized mutation that abolishes ATPase activity but maintains allosteric coupling
- Allosteric coupling of mutant ([1]; ref [16],[28]): maintains allosteric coupling
- ATPase activity of mutant (DnaK ATPase): abolishes ATPase activity
